Measurements from patent US20240199584A1, “KRAS INHIBITORS” (Bristol-Myers Squibb Company, priority 2022, published 2024).
Read-outs that look alike come from different tables or passages of the source.

Assays:
KRAS G12A = molecular target: T1, KRAS G12A (Homo sapiens, UniProt P01116, G12A); assay: Cellular KRAS:RAF Disruption Assay (NanoBRET), KRAS G12A; type: cell-based; conditions: HEK293 T cells co-expressing RAF1 and KRAS G12A, 24 hours; read-out: RAS::RAF binding via NanoBRET IC50, KRAS G12A
T1 construct: expressed in transfected cells
Protocol: (§1) Cellular KRAS:RAF Disruption Assay
(§2) Stable cell lines (HEK293 T) were generated to co-express RAF1 and mutant or wild type KRAS, as indicated, using the BiBRET vector (Promega). Engineered cell lines were suspended in media (OptiMEM, […]), plated in 384-well plates (8000 cells/well), and allowed to rest for 1.5 hours. Cells were treated with compounds for 24 hours, and NanoBRET NanoGlo substrate (Promega) was added per the manufacturer's instructions.

KRAS G12V = molecular target: T2, KRAS G12V (Homo sapiens, UniProt P01116, G12V); assay: Cellular KRAS:RAF Disruption Assay (NanoBRET), KRAS G12V; type: cell-based; conditions: HEK293 T cells co-expressing RAF1 and KRAS G12V, 24 hours; read-out: RAS::RAF binding via NanoBRET IC50, KRAS G12V
T2 construct: expressed in transfected cells
Protocol: as §1, §2

KRAS G12S = molecular target: T3, KRAS G12S (Homo sapiens, UniProt P01116, G12S); assay: Cellular KRAS:RAF Disruption Assay (NanoBRET), KRAS G12S; type: cell-based; conditions: HEK293 T cells co-expressing RAF1 and KRAS G12S, 24 hours; read-out: RAS::RAF binding via NanoBRET IC50, KRAS G12S
T3 construct: expressed in transfected cells
Protocol: as §1, §2

KRAS Q61R = molecular target: T4, KRAS Q61R (Homo sapiens, UniProt P01116, Q61R); assay: Cellular KRAS:RAF Disruption Assay (NanoBRET), KRAS Q61R; type: cell-based; conditions: HEK293 T cells co-expressing RAF1 and KRAS Q61R, 24 hours; read-out: RAS::RAF binding via NanoBRET IC50, KRAS Q61R
T4 construct: expressed in transfected cells
Protocol: as §1, §2

KRAS G13D = molecular target: T5, KRAS G13D (Homo sapiens, UniProt P01116, G13D); assay: Cellular KRAS:RAF Disruption Assay (NanoBRET), KRAS G13D; type: cell-based; conditions: HEK293 T cells co-expressing RAF1 and KRAS G13D, 24 hours; read-out: RAS::RAF binding via NanoBRET IC50, KRAS G13D
T5 construct: expressed in transfected cells
Protocol: as §1, §2

KRAS WT = molecular target: T6, KRAS WT (Homo sapiens, UniProt P01116); assay: Cellular KRAS:RAF Disruption Assay (NanoBRET), KRAS WT; type: cell-based; conditions: HEK293 T cells co-expressing RAF1 and wild type KRAS, 24 hours; read-out: RAS::RAF binding via NanoBRET IC50, KRAS WT
T6 construct: expressed in transfected cells
Protocol: as §1, §2

KRAS G12R = molecular target: T7, KRAS G12R (Homo sapiens, UniProt P01116, G12R); assay: Cellular KRAS:RAF Disruption Assay (NanoBRET), KRAS G12R; type: cell-based; conditions: HEK293 T cells co-expressing RAF1 and KRAS G12R, 24 hours; read-out: RAS::RAF binding via NanoBRET IC50, KRAS G12R
T7 construct: expressed in transfected cells
Protocol: as §1, §2

KRAS G12C = molecular target: T8, KRAS G12C (Homo sapiens, UniProt P01116, G12C); assay: Cellular KRAS:RAF Disruption Assay (NanoBRET), KRAS G12C; type: cell-based; conditions: HEK293 T cells co-expressing RAF1 and KRAS G12C, 24 hours; read-out: RAS::RAF binding via NanoBRET IC50, KRAS G12C
T8 construct: expressed in transfected cells
Protocol: as §1, §2

KRAS Q61H = molecular target: T9, KRAS Q61H (Homo sapiens, UniProt P01116, Q61H); assay: Cellular KRAS:RAF Disruption Assay (NanoBRET), KRAS Q61H; type: cell-based; conditions: HEK293 T cells co-expressing RAF1 and KRAS Q61H, 24 hours; read-out: RAS::RAF binding via NanoBRET IC50, KRAS Q61H
T9 construct: expressed in transfected cells
Protocol: as §1, §2

KRAS G12D [1] = molecular target: T10, KRAS G12D (Homo sapiens, UniProt P01116, G12D); assay: biochemical
KRAS A146T = molecular target: T11, KRAS A146T (Homo sapiens, UniProt P01116, A146T); assay: Cellular KRAS:RAF Disruption Assay (NanoBRET), KRAS A146T; type: cell-based; conditions: HEK293 T cells co-expressing RAF1 and KRAS A146T, 24 hours; read-out: RAS::RAF binding via NanoBRET IC50, KRAS A146T
T11 construct: expressed in transfected cells
Protocol: as §1, §2

KRAS G12D [2] = molecular target: T10, KRAS G12D; assay: biochemical; remark: listed apart in the source

T10 sequence (P01116 1-188 isoform P01116-2 G12D): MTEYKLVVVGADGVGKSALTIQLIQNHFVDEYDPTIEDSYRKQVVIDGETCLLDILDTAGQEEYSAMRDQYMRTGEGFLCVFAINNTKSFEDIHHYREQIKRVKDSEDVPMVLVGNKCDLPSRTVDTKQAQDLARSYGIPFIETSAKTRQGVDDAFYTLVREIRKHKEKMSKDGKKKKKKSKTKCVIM
T9 sequence (P01116 1-188 isoform P01116-2 Q61H): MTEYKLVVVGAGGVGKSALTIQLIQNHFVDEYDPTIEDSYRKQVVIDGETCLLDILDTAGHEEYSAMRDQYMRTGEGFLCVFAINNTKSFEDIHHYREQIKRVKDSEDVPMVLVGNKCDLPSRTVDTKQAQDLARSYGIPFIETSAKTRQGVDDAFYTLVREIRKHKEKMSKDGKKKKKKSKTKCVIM
T11 sequence (P01116 1-188 isoform P01116-2 A146T): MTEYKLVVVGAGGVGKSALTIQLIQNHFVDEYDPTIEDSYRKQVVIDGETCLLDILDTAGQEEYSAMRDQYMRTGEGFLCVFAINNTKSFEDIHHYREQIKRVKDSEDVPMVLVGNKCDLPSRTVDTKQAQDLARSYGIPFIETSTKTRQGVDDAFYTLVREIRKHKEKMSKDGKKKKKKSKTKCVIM
T7 sequence (P01116 1-188 isoform P01116-2 G12R): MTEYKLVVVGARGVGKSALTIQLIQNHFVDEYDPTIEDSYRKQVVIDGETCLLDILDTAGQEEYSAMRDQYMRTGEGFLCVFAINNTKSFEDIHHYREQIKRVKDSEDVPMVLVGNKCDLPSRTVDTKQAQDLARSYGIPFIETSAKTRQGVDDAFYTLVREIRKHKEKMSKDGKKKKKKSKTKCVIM
T2 sequence (P01116 1-188 isoform P01116-2 G12V): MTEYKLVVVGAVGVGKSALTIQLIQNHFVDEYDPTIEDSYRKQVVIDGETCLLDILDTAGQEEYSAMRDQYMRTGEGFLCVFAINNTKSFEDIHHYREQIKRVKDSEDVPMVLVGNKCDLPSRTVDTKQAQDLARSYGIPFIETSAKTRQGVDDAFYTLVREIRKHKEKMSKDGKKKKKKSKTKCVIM
T3 sequence (P01116 1-188 isoform P01116-2 G12S): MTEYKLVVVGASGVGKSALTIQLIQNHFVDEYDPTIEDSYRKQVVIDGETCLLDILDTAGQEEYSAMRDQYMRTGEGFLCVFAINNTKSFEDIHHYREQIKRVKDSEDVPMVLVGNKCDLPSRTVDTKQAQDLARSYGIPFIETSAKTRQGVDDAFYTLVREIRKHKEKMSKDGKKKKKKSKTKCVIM
T6 sequence (P01116 1-188 isoform P01116-2): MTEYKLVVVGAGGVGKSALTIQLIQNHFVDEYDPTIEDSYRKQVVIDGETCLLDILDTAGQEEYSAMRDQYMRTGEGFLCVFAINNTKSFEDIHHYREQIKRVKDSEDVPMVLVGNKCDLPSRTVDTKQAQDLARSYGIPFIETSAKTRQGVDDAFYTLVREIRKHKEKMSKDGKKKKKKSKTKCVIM
T8 sequence (P01116 1-188 isoform P01116-2 G12C): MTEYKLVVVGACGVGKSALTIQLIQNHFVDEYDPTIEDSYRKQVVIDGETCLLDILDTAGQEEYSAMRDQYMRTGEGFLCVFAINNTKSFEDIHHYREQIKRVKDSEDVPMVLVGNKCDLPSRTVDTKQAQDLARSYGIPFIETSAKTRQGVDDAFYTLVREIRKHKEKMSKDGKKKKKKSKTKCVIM
T1 sequence (P01116 1-188 isoform P01116-2 G12A): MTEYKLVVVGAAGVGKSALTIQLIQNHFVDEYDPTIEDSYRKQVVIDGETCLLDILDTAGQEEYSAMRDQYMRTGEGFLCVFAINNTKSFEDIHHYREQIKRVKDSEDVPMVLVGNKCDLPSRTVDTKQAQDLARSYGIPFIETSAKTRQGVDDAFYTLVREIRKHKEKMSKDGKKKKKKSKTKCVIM
T4 sequence (P01116 1-188 isoform P01116-2 Q61R): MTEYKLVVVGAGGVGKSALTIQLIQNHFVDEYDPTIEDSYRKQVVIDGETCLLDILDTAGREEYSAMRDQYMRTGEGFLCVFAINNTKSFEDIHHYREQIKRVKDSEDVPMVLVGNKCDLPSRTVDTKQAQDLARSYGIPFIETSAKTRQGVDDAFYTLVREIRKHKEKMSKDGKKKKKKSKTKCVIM
T5 sequence (P01116 1-188 isoform P01116-2 G13D): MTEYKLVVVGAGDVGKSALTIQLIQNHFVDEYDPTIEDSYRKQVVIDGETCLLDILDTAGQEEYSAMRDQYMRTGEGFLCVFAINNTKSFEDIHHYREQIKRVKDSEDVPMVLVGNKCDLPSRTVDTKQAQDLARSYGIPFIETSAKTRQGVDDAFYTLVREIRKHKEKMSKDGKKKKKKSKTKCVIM

| IC50 (KRAS G12A) [nM] | IC50 (KRAS G12V) [nM] | IC50 (KRAS G12S) [nM] | IC50 (KRAS Q61R) [nM] | IC50 (KRAS G13D) [nM] | IC50 (KRAS WT) [nM] | IC50 (KRAS G12R) [nM] | IC50 (KRAS G12C) [nM] | IC50 (KRAS Q61H) [nM] | IC50 (KRAS G12D [1]) [nM] | IC50 (KRAS A146T) [nM] | IC50 (KRAS G12D [2]) [nM] | SMILES |
| --- | --- | --- | --- | --- | --- | --- | --- | --- | --- | --- | --- | --- |
| 29 | 405 | 109 | > 10000 | 72 | 69 | > 10000 | 117 | 234 | < 2 | 179 | 900 | C#Cc1c(F)ccc2cc(O)cc(-c3ncc4c(N5CC6CCC(C5)N6C(=O)C5CC5)nc(OC[C@@]56CCCN5C[C@H](F)C6)nc4c3F)c12 [Example 6-2, 4-(2-{[(2R,7aS)-2-fluoro-hexahydro-1H-pyrrolizin-7a-yl]methoxy}-4-{8-cyclopropanecarbonyl-3,8-diazabicyclo[3.2.1]octan-3-yl}-8-fluoropyrido[4,3-d]pyrimidin-7-yl)-5-ethynyl-6-fluoronaphthalen-2-ol] |
| 2 | 19 | 4 | 1460 | 5 | 2 | 133 | 3 | 7 | < 2 | 16 | < 2 | C#Cc1c(F)ccc2cc(O)cc(-c3ncc4c(N5CCCOCC5)nc(OC[C@]56CCC[C@H]5N(C)CCC6)nc4c3F)c12 [Example 1-3, 4-(2-{[(4aS,7aR)-1-methyl-octahydro-1H-cyclopenta[b]pyridin-4a-yl]methoxy}-8-fluoro-4-(1,4-oxazepan-4-yl)pyrido[4,3-d]pyrimidin-7-yl)-5-ethynyl-6-fluoronaphthalen-2-ol] |
